Reference: PMC7400623, “Effect of lysine side chain length on histone lysine acetyltransferase catalysis” (Scientific Reports, 2020)
Values belong to the substance of their own block, whether it stands above or below them.

Key:
[1] = molecular target: T1, PCAF (KAT2B) (Homo sapiens, UniProt Q92831); assay: MALDI-TOF MS enzymatic assay of PCAF-catalyzed acetylation of histone peptides; type: biochemical; details: 100 µM peptide, 300 µM AcCoA, pH 8.0, 37 °C; for acetylation (conversion to acetylated peptide) by PCAF: after 3 h, 2 µM PCAF, 50 mM Hepes, 0.1 mM EDTA, 1 mM DTT
T1 construct: Human PCAF catalytic domain (residues 498–658 in pET16b vector); SNAP-tag; His-tag; made in house; host or cells: E. coli BL21(DE3)
Description: (§1) MALDI-TOF MS enzymatic assays were carried out to investigate KAT-catalyzed acetylation of synthetic histone peptides. The enzymatic activity of the recombinantly expressed human KATs was measured at different time points (2 µM KAT enzyme, 100 µM histone peptide, 300 µM AcCoA, buffer: 50 mM Hepes, 0.1 mM EDTA, 1 mM DTT, pH = 8.0, 37 °C, hereafter used as standard conditions) (Fig. 3b,c). […] As further control, H4 and H3 peptides containing stereochemically inverted D-lysine were synthesized.
(§2) The KAT enzymatic activity towards histone peptides was measured at different time points under standard conditions (2 µM KAT enzyme, 100 µM peptide, 300 µM AcCoA) in the reaction buffer (50 mM HEPES, 0.1 mM EDTA, 1 mM DTT, pH = 8.0). The reactions were carried out in a final volume of 50 µL and shaken up in a Thermomixer C at 750 rpm, at 37 °C. The reactions were quenched by the addition of TFA 10% in MilliQ water at different time points. All reactions were aliquoted and mixed 1:2 with a solution of α-Cyano-4-hydroxycinnamic acid (CHCCA) in 1:1 MQ and ACN (0.1% TFA) and loaded onto an MTP 384 polished steel target to be analyzed by a UltrafleXtreme-II tandem mass spectrometer (Bruker, Billerica, MA, USA).

[2] = molecular target: T2, GCN5 (KAT2A) (Homo sapiens, UniProt Q92830); assay: MALDI-TOF MS enzymatic assay of GCN5-catalyzed acetylation of histone peptides; type: biochemical; details: 300 µM AcCoA, pH 8.0, 37 °C; for acetylation (conversion to acetylated peptide) by GCN5: after 3 h, 2 µM GCN5, 100 µM peptide, 50 mM Hepes, 0.1 mM EDTA, 1 mM DTT
T2 construct: Human GCN5 catalytic domain (residues 497–662 in pET28a-LIC vector); His-tag; host or cells: E. coli BL21(DE3)
Description: as §1, §2

[3] = molecular target: Human GCN5 catalytic domain (residues 497-662) (human) (UniProt Q92830)
[4] = molecular target: Human PCAF catalytic domain (residues 498-658) (human) (UniProt Q92831)
[5] = molecular target: Human GCN5 catalytic domain (residues 497-662) (human) (UniProt Q92830); remark: listed apart in the source
[6] = molecular target: Human PCAF catalytic domain (residues 498-658) (human) (UniProt Q92831); remark: listed apart in the source
[7] = molecular target: T3, GCN5 catalytic domain (Homo sapiens, UniProt Q92830); assay: MALDI-TOF MS kinetics assay, GCN5; type: biochemical; details: for kcat^app/Km^app / decrease (drop) of kcat/Km for GCN5 compared to the natural lysine peptide: GCN5; for kcat^app/Km^app: same kinetics conditions; for kcat^app / Km: GCN5 catalytic domain 50 nM (2 µM for unnatural analogs), peptide 1,050–0 µM, pH 7.4, 37 °C, MALDI-TOF MS, duplicates, value ± SD, SD; for kcat^app: AcCoA 100 µM (saturating), 50 mM HEPES, 0.1 mM EDTA, 0.01% TRITON-X; for Km: AcCoA 100 µM, read-out: Km^app; for decrease (drop) of kcat/Km for GCN5 compared to the natural lysine peptide: K14 series vs H3K14, K9 series vs H3K9
T3 construct: Human GCN5 catalytic domain (residues 497–662 in pET28a-LIC vector); His-tag; host or cells: E. coli BL21(DE3)
Excerpt: (§3) Kinetic analysis of bi-substrate enzymes, such as KATs, is reckoned to be challenging and dependent on many factors. Firstly, given the nature of these enzymes, the binding of one of the two substrates directly influences the binding of the other (with a direct effect on the Michaelis–Menten parameter Km). […] Therefore, to obtain data that would allow us to directly compare the catalytic properties of the selected KATs towards our selection of histone peptides bearing lysine analogs with longer side chains, two strategies to standardize our kinetic evaluation were taken: i) all the experiments were carried out with the same saturating concentrations of AcCoA and ii) only KATs catalytic domains were employed in the study.
(§4) Histone peptides kinetics evaluation was carried out with a MALDI-TOF MS assay under steady-state conditions[57],[58]. Histone peptides (1,050–0 µM) were incubated with AcCoA (100 µM) and the reactions were started by the addition of the enzyme (MOF 570 nM, PCAF and GCN5 50 nM) in a final volume of 20 µL in kinetic buffer (50 mM HEPES, 0.1 mM EDTA, 0.01% TRITON-X, pH = 7.4). […] AcCoA stock solutions in milli-Q water were calibrated with a NanoDrop 2000 spectrophotometer (Thermo Scientific, Waltham, MA, USA), employing the characteristic molar extinction coefficient ε260nm = 16,400 M^−1 cm^−1. Reactions were incubated at 37 °C, shaken at 750 rpm and quenched with TFA 10% in milli-Q water at different time points, within linear production of acetylated peptides extrapolated from time-course plots. All reactions were aliquoted and mixed 1:2 with a solution of α-cyano-4-hydroxycinnamic acid (CHCCA) in 1:1 MQ and ACN (0.1% TFA) and loaded onto MTP 384 polished steel target to be analyzed by UltrafleXtreme-II tandem mass spectrometer (Bruker). The amount of acetylated peptide was calculated by integration of the product peak area and divided it by the amount of unacetylated peptide, taking in account all the ionic species, at any concentration points using the FlexAnalysis software. Kinetic values were extrapolated by fitting V0 values (µM of produced peptide per minutes) and histone peptide concentrations to the Michaelis–Menten equation using the GraphPad Prism 5 software. Kinetic experiments were carried out in duplicates and final values are reported as value ± SD.

[8] = molecular target: T4, PCAF catalytic domain (Homo sapiens, UniProt Q92831); assay: MALDI-TOF MS kinetics assay, PCAF; type: biochemical; details: for kcat^app / Km: PCAF catalytic domain 50 nM (2 µM for unnatural analogs), peptide 1,050–0 µM, pH 7.4, 37 °C, MALDI-TOF MS, duplicates, value ± SD, SD; for kcat^app: AcCoA 100 µM (saturating), 50 mM HEPES, 0.1 mM EDTA, 0.01% TRITON-X; for Km: AcCoA 100 µM, read-out: Km^app; for kcat^app/Km^app / decrease (drop) of kcat/Km for PCAF compared to the natural lysine peptide: PCAF; for kcat^app/Km^app: same kinetics conditions; for decrease (drop) of kcat/Km for PCAF compared to the natural lysine peptide: K14 series vs H3K14, K9 series vs H3K9
T4 construct: Human PCAF catalytic domain (residues 498–658 in pET16b vector); SNAP-tag; His-tag; made in house; host or cells: E. coli BL21(DE3)
Excerpt: as §3, §4

T1 sequence (Q92831 498-658): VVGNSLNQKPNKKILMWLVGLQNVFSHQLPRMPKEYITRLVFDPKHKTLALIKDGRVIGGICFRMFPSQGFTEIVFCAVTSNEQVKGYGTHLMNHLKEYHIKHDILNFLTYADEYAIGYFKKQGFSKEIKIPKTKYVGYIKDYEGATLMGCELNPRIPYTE
Chain of Human PCAF catalytic domain (residues 498-658) (human) (Q92831 498-658): as above
T4 sequence (Q92831 498-658): as above
Chain of Human GCN5 catalytic domain (residues 497-662) (human) (Q92830 497-662): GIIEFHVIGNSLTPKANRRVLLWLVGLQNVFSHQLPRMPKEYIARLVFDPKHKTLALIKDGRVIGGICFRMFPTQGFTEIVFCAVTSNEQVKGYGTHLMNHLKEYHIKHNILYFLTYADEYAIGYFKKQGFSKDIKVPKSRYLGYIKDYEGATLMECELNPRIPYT
T2 sequence (Q92830 497-662): as above
T3 sequence (Q92830 497-662): as above

Substance: ARTKQTAR h3K9STGGK Ac A [H3h3K9, 15-mer histone H3 peptide (K14ac) with h3K at position 9]
substrate for PCAF-catalyzed acetylation (in words) ([1]; standard conditions: 2 µM PCAF, 3 h, MALDI-TOF MS): No acetylation was observed within limits of detection | substrate for GCN5-catalyzed acetylation (in words) ([2]; standard conditions: 2 µM GCN5, 100 µM peptide, 3 h, MALDI-TOF MS): No acetylation was observed within limits of detection

Substance: H3K*9 histone peptide containing h4K at position 9 (H3 residues 1-15, K14 acetylated)
IC50 of inhibition of GCN5-catalyzed acetylation of the H3K9 peptide (single point, 100 µM of each peptide, 1 h, 37 °C, MALDI-TOF MS; residual activity greater than 50%) [5]: > 100 µM | IC50 of inhibition of PCAF-catalyzed acetylation of the H3K9 peptide (single point, 100 µM of each peptide, 1 h, 37 °C, MALDI-TOF MS; residual activity greater than 50%) [6]: > 100 µM

Substance: H3K*14 histone peptide containing Orn at position 14 (H3 residues 3-17, K9 acetylated)
IC50 of inhibition of GCN5-catalyzed acetylation of the H3K14 peptide (single point, 100 µM of each peptide, 1 h, 37 °C, MALDI-TOF MS; residual activity greater than 50%) [5]: > 100 µM | IC50 of inhibition of PCAF-catalyzed acetylation of the H3K14 peptide (single point, 100 µM of each peptide, 1 h, 37 °C, MALDI-TOF MS; residual activity greater than 50%) [6]: > 100 µM

Substance: H3K*14 histone peptide containing h4K at position 14 (H3 residues 3-17, K9 acetylated)
IC50 of inhibition of GCN5-catalyzed acetylation of the H3K14 peptide (single point, 100 µM of each peptide, 1 h, 37 °C, MALDI-TOF MS; residual activity greater than 50%) [5]: > 100 µM | IC50 of inhibition of PCAF-catalyzed acetylation of the H3K14 peptide (single point, 100 µM of each peptide, 1 h, 37 °C, MALDI-TOF MS; residual activity greater than 50%) [6]: > 100 µM

Substance: H3h2K14 histone peptide (H3 residues 3-17, K9 acetylated, h2K at position 14)
Km^app of GCN5-catalyzed acetylation (MALDI-TOF MS kinetics, steady state, saturating AcCoA, 37 °C, pH 7.4) [3]: 1050 μM | Km^app of PCAF-catalyzed acetylation (MALDI-TOF MS kinetics, steady state, saturating AcCoA, 37 °C, pH 7.4) [4]: 606 μM

Substance: TKQTARK Ac STGG K14 APR [H3K14, 15-mer H3 peptide, residues 3–17, synthetically acetylated K9, reference compound]
time to quantitative acetylation by PCAF ([1]; standard conditions: 2 µM PCAF): 15 min | time to quantitative acetylation by GCN5 ([2]; standard conditions: 2 µM GCN5, 100 µM peptide): 15 min | kcat^app/Km^app [7]: 5930 M⁻¹ s⁻¹ | kcat^app [7]: 5.9 ± 0.035 s⁻¹ | Km [7]: 995 ± 198 µM | kcat^app [8]: 6.07 ± 0.02 s⁻¹ | Km [8]: 727 ± 95 µM | kcat^app/Km^app [8]: 8330 M⁻¹ s⁻¹

Substance: TKQTARK Ac STGG h2K 14 APR [H3h2K14, 15-mer histone H3 peptide (K9ac) with h2K at position 14]
acetylation (conversion to acetylated peptide) by PCAF ([1]; MALDI-TOF MS): 55% | acetylation (conversion to acetylated peptide) by GCN5 ([2]; MALDI-TOF MS): 25% | decrease (drop) of kcat/Km for GCN5 compared to the natural lysine peptide [7]: 890 fold | kcat^app/Km^app [7]: 6.7 M⁻¹ s⁻¹ | kcat^app [7]: 0.00667 ± 0.0017 s⁻¹ | Km [7]: 1050 µM | kcat^app [8]: 0.0083 ± 0.0017 s⁻¹ | Km [8]: 606 ± 96 µM | decrease (drop) of kcat/Km for PCAF compared to the natural lysine peptide [8]: 625 fold | kcat^app/Km^app [8]: 13 M⁻¹ s⁻¹

Substance: TKQTARK Ac STGG hK 14 APR [H3hK14, 15-mer histone H3 peptide (K9ac) with hLys at position 14]
acetylation (conversion to acetylated peptide) by PCAF ([1]; MALDI-TOF MS): 83% | acetylation (conversion to acetylated peptide) by GCN5 ([2]; MALDI-TOF MS): 62% | decrease (drop) of kcat/Km for GCN5 compared to the natural lysine peptide [7]: 354 fold | kcat^app/Km^app [7]: 16.7 M⁻¹ s⁻¹ | kcat^app [7]: 0.0145 ± 0.0017 s⁻¹ | Km [7]: 878 ± 157 µM | kcat^app [8]: 0.0155 ± 0.0033 s⁻¹ | Km [8]: 488 ± 98 µM | decrease (drop) of kcat/Km for PCAF compared to the natural lysine peptide [8]: 263 fold | kcat^app/Km^app [8]: 31.7 M⁻¹ s⁻¹

Second part, the substance after the results:

Km^app of GCN5-catalyzed acetylation (MALDI-TOF MS kinetics, steady state, saturating AcCoA, 37 °C, pH 7.4) [3]: 995 μM | Km^app of PCAF-catalyzed acetylation (MALDI-TOF MS kinetics, steady state, saturating AcCoA, 37 °C, pH 7.4) [4]: 727 μM
Substance: H3K14 histone peptide (H3 residues 3-17, K9 acetylated)

IC50 of inhibition of GCN5-catalyzed acetylation of the H3K9 peptide (single point, 100 µM of each peptide, 1 h, 37 °C, MALDI-TOF MS; residual activity greater than 50%) [5]: > 100 µM | IC50 of inhibition of PCAF-catalyzed acetylation of the H3K9 peptide (single point, 100 µM of each peptide, 1 h, 37 °C, MALDI-TOF MS; residual activity greater than 50%) [6]: > 100 µM
Substance: H3K*9 histone peptide containing Dab at position 9 (H3 residues 1-15, K14 acetylated)

IC50 of inhibition of GCN5-catalyzed acetylation of the H3K9 peptide (single point, 100 µM of each peptide, 1 h, 37 °C, MALDI-TOF MS; residual activity greater than 50%) [5]: > 100 µM | IC50 of inhibition of PCAF-catalyzed acetylation of the H3K9 peptide (single point, 100 µM of each peptide, 1 h, 37 °C, MALDI-TOF MS; residual activity greater than 50%) [6]: > 100 µM
Substance: H3K*9 histone peptide containing Orn at position 9 (H3 residues 1-15, K14 acetylated)

IC50 of inhibition of GCN5-catalyzed acetylation of the H3K14 peptide (single point, 100 µM of each peptide, 1 h, 37 °C, MALDI-TOF MS; residual activity greater than 50%) [5]: > 100 µM | IC50 of inhibition of PCAF-catalyzed acetylation of the H3K14 peptide (single point, 100 µM of each peptide, 1 h, 37 °C, MALDI-TOF MS; residual activity greater than 50%) [6]: > 100 µM
Substance: H3K*14 histone peptide containing Dab at position 14 (H3 residues 3-17, K9 acetylated)

Km^app of PCAF-catalyzed acetylation (MALDI-TOF MS kinetics, steady state, saturating AcCoA, 37 °C, pH 7.4) [4]: 179 μM
Substance: H3h2K9 histone peptide (H3 residues 1-15, K14 acetylated, h2K at position 9)

Km^app of GCN5-catalyzed acetylation (MALDI-TOF MS kinetics, steady state, saturating AcCoA, 37 °C, pH 7.4) [3]: 878 μM | Km^app of PCAF-catalyzed acetylation (MALDI-TOF MS kinetics, steady state, saturating AcCoA, 37 °C, pH 7.4) [4]: 488 μM
Substance: H3hK14 histone peptide (H3 residues 3-17, K9 acetylated, hLys at position 14)
